This note sets out measurements from US20260306460A1, “COMPOSITION FOR REMOVING AND INHIBITING SENESCENT CELLS, AND USES THEREOF” (LIFECEUTIX CO., LTD., priority 2023, published 2026).

One experiment deals with senescent A549 cells. Nature of the experiment: Viability of senescent A549 cells (CellTiter-Glo), Example 18, Table 15. The following applies: Homo sapiens, A549, read-out: Survival (%).
The next experiment has as its system senescent cells. Description: Viability of senescent cells (CellTiter-Glo), Example 17, Table 13. To be noted: Homo sapiens, read-out: Survival (%). In general terms: ATP-based viability assays read luminescence as a measure of living cells.

Description for senescent A549 cells: Senescence-induced cancer cells treated with doxorubicin were treated with the test compound at designated concentrations, and cell viability was measured using the CellTiter-Glo Luminescent Cell Viability Assay (Promega).
Description for senescent cells: Cells induced to undergo senescence by doxorubicin treatment were treated with test compound at designated concentrations and measured using the CellTiter-Glo Luminescent Cell Viability Assay (Promega).

As to `O=C1[C@H](CC[C@H](O)c2ccc(F)cc2)[C@@H](c2ccc(O)cc2)N1c1ccc(F)cc1` [LX-9321, Ezetimibe], in the experiment with senescent A549 cells, the viability at 1.1 µM was found to be 108%, the viability at 10 µM turned out to be 91.4%, the viability at 30 µM was determined as 65.8% and the viability at 90 µM is 4.1%. In the experiment with senescent cells, the viability at 1.1 µM is 98.3%, the viability at 10 µM was determined as 86.4%, the viability at 30 µM is 79.6% and the viability at 90 µM turned out to be 19.4%.
For the compound `O=C1C2=C(CCN(Cc3ccccc3)C2)N2CCN=C2N1Cc1ccc(F)cc1F` [LX-7262], the values for the viability at 1.1 µM with senescent A549 cells and with senescent cells were 69.5% and 52.8%, respectively.
As for `O=C1Nc2ccccc2/C1=C1/Nc2ccc(C(=O)NCC3CCN(C(=O)CCl)CC3)cc2C1=O` [LX-5328], in the experiment on senescent A549 cells, the viability at 1.1 µM came out at 62.7% and the viability at 10 µM came to 0.4%. Moreover, in the experiment on senescent cells, the viability at 1.1 µM is 54.3% and the viability at 10 µM is 2%.
In the case of `CC(C)C[C@H](CN)CC(=O)O` [LX-9131, Pregabalin], in the experiment on senescent A549 cells, the viability at 1.1 µM is 91.7%, the viability at 10 µM came to 83.3%, the viability at 30 µM was 57.9% and the viability at 90 µM stood at 12.4%. Besides, in the experiment with senescent cells, the viability at 1.1 µM was found to be 81.9%, the viability at 10 µM stood at 47.7% and the viability at 30 µM amounted to 13.2%.
As for `COc1cc(Cc2cnc(N)nc2N)cc(OC)c1OC` [LX-9114, Trimethoprim], in the experiment on senescent A549 cells, the viability at 1.1 µM came to 95.2%, the viability at 10 µM was determined as 74.4% and the viability at 30 µM is 20.7%. Moreover, in the experiment with senescent cells, the viability at 1.1 µM worked out at 102%, the viability at 10 µM turned out to be 88.6% and the viability at 30 µM was 16.1%.
In the case of `N=C(NC(=N)N1CCCC1)Nc1ccc(OC(F)(F)F)cc1` [LX-7403, Lixumistat], in the experiment on senescent A549 cells, the viability at 1.1 µM came to 99.5%, the viability at 10 µM was 52.7% and the viability at 30 µM turned out to be 7.5%. Further, in the experiment with senescent cells, the viability at 1.1 µM turned out to be 94.5%, the viability at 10 µM turned out to be 72.3% and the viability at 30 µM worked out at 38.4%.
For `CC[C@H]1[C@@H](O)[C@@H]2[C@H](CC[C@]3(C)[C@@H]([C@H](C)CCC(=O)O)CC[C@@H]23)[C@@]2(C)CC[C@@H](O)C[C@@H]12` [LX-9732, Obeticholic Acid], in the experiment on senescent A549 cells, the viability at 1.1 µM was found to be 97.5%, the viability at 10 µM was 51.3% and the viability at 30 µM was determined as 7.9%. For the same compound, in the experiment with senescent cells, the viability at 1.1 µM came out at 95.7%, the viability at 10 µM was 46.4% and the viability at 30 µM came out at 3.8%.
Regarding `CC(=O)NCCOC(=O)[C@H](Oc1cccc(C(F)(F)F)c1)c1ccc(Cl)cc1` [LX-9409, Arhalofenate], in the experiment with senescent A549 cells, the viability at 1.1 µM was found to be 72.7%, the viability at 10 µM was determined as 51.9% and the viability at 30 µM was 8.7%. For the same compound, in the experiment on senescent cells, the viability at 1.1 µM worked out at 80.5%, the viability at 10 µM stood at 65.7% and the viability at 30 µM was 15.3%.
Regarding `Cc1ncc([N+](=O)[O-])n1CCO` [LX-9107, Metronidazole], in the experiment with senescent A549 cells, the viability at 1.1 µM turned out to be 95.6%, the viability at 10 µM was 77.8% and the viability at 30 µM was 5%. Besides, in the experiment with senescent cells, the viability at 1.1 µM came to 106%, the viability at 10 µM came to 87.3% and the viability at 30 µM is 26.2%.
`CCCCC[C@H](O)CC[C@@H]1[C@H]2Cc3cccc(OCC(=O)O)c3C[C@H]2C[C@H]1O` [LX-9713, Treprostinil]: the viability at 1.1 µM worked out at 28.4% in the experiment with senescent A549 cells and 1.8% with senescent cells.
Take `COc1c(C)c2c(c(O)c1C/C=C(\C)CCC(=O)O)C(=O)OC2` [LX-9725, Mycophenolic acid]: the figures for the viability at 1.1 µM with senescent A549 cells and in the experiment on senescent cells were 62.4% and 49.3%, respectively.
For the compound `CCOc1cc(CC(=O)N[C@@H](CC(C)C)c2ccccc2N2CCCCC2)ccc1C(=O)O` [LX-9302, Repaglinide], in the experiment on senescent A549 cells, the viability at 1.1 µM is 94.1%, the viability at 10 µM was determined as 82.3%, the viability at 30 µM was found to be 68.5% and the viability at 90 µM amounted to 11.8%. Moreover, in the experiment with senescent cells, the viability at 1.1 µM came out at 99.7%, the viability at 10 µM was 73.5% and the viability at 30 µM stood at 34.3%.
On to `Nc1nc2nc[nH]c2c(=S)[nH]1` [LX-6530, Thioguanine], for which, in the experiment with senescent A549 cells, the viability at 1.1 µM came to 97.9%, the viability at 10 µM worked out at 83.9%, the viability at 30 µM is 61.1% and the viability at 90 µM is 10.3%. Further, in the experiment with senescent cells, the viability at 1.1 µM turned out to be 106%, the viability at 10 µM came to 112% and the viability at 30 µM came out at 46.1%.
Consider `COc1cc(Nc2ncc3c(n2)-c2ccc(Cl)cc2C(c2c(F)cccc2OC)=NC3)ccc1C(=O)O` [LX-6203, Alisertib], for which, in the experiment on senescent A549 cells, the viability at 1.1 µM amounted to 96.4%, the viability at 10 µM came to 30.7% and the viability at 30 µM is 2.1%. For the same compound, in the experiment with senescent cells, the viability at 1.1 µM is 75.1% and the viability at 10 µM turned out to be 13.1%.
For the compound `C=C(CN1Cc2c(ccc3ccc(-c4cc(NC(C)=O)cc(OC)c4)cc23)C1=O)C(N)=O` [LX-5907], in the experiment on senescent A549 cells, the viability at 1.1 µM stood at 91.8%, the viability at 10 µM is 39.4% and the viability at 30 µM stood at 14.4%. Further, in the experiment on senescent cells, the viability at 1.1 µM was determined as 95.5%, the viability at 10 µM worked out at 19.5% and the viability at 30 µM is 1.7%.
On to `Nc1cc(F)ccc1NC(=O)c1ccc(CNC(=O)/C=C/c2cccnc2)cc1` [LX-6809, Chidamide], for which, in the experiment with senescent A549 cells, the viability at 1.1 µM was determined as 100%, the viability at 10 µM worked out at 63.7% and the viability at 30 µM was found to be 23.9%. For the same compound, in the experiment with senescent cells, the viability at 1.1 µM amounted to 87.5%, the viability at 10 µM was found to be 53.3% and the viability at 30 µM is 17.8%.
As to `NCCCC(O)(P(=O)(O)O)P(=O)(O)O` [LX-9105, Alendronate], in the experiment with senescent A549 cells, the viability at 1.1 µM was 105%, the viability at 10 µM worked out at 96.2%, the viability at 30 µM came out at 57.1% and the viability at 90 µM came to 6.9%. Also, in the experiment on senescent cells, the viability at 1.1 µM was determined as 102%, the viability at 10 µM worked out at 96%, the viability at 30 µM turned out to be 89.9% and the viability at 90 µM came out at 4.2%.
On to `N[C@@H](CCC(=O)N[C@@H](CS(=O)(=O)CCOP(=O)(N(CCCl)CCCl)N(CCCl)CCCl)C(=O)N[C@@H](C(=O)O)c1ccccc1)C(=O)O` [LX-7463, Canfosfamide], for which, in the experiment with senescent A549 cells, the viability at 1.1 µM was found to be 96.5%, the viability at 10 µM came to 43.3% and the viability at 30 µM turned out to be 0.1%. For the same compound, in the experiment with senescent cells, the viability at 1.1 µM turned out to be 88.8% and the viability at 10 µM is 32.1%.
For the compound `CC(C)(C)OC(=O)NC1CCN(c2ccc(-c3cnc4[nH]cc(C(=O)C(=O)NCCc5ccccn5)c4c3)cn2)CC1` [LX-5341], in the experiment on senescent A549 cells, the viability at 1.1 µM is 94.6%, the viability at 10 µM was found to be 55.4% and the viability at 30 µM came to 13.7%. Moreover, in the experiment with senescent cells, the viability at 1.1 µM came to 99.1%, the viability at 10 µM was 48.5% and the viability at 30 µM was determined as 3.5%.
Consider `CC[C@@H]1C(=O)N(C)c2cnc(Nc3ccc(C(=O)N[C@H]4CC[C@H](N5CCN(CC6CC6)CC5)CC4)cc3OC)nc2N1C(C)C` [LX-6207, Volasertib], for which, in the experiment on senescent A549 cells, the viability at 1.1 µM turned out to be 88.2%, the viability at 10 µM stood at 41% and the viability at 30 µM is 9.4%. Besides, in the experiment with senescent cells, the viability at 1.1 µM was found to be 68.7% and the viability at 10 µM is 8.6%.
